Test results taken from US10954252B1, “Inhibitors of human immunodeficiency virus replication” (ViiV HEALTHCARE UK (NO.5) LIMITED, priority 2017, dated 2021).

Assays:
[1] = tested on: recombinant NL4-3 virus (nef section replaced with Renilla luciferase gene) in MT-2 cells; test: HIV cell culture assay (antiviral activity, luciferase readout); assay type: cell-based; conditions: MT-2 cells infected for 4-5 days with recombinant NL4-3 luciferase virus
Description: HIV cell culture assay—MT-2 cells, 293T cells and the proviral DNA clone of NL4-3 virus were obtained from the NIH AIDS Research and Reference Reagent Program. MT-2 cells were propagated in RPMI 1640 media supplemented with 10% heat inactivated fetal bovine serum (FBS), 100 μg/ml penicillin G and up to 100 units/mL streptomycin. The 293T cells were propagated in DMEM media supplemented with 10% heat inactivated FBS, 100 μg/mL penicillin G and 100 μg/mL streptomycin. A recombinant NL4-3 proviral clone, in which a section of the nef gene was replaced with the Renilla luciferase gene, was used to make the reference virus used in these studies. The recombinant virus was prepared through transfection of the recombinant NL4-3 proviral clone into 293T cells using Transit-293 Transfection Reagent from Mirus Bio LLC (Madison, Wis.). Supernatent was harvested after 2-3 days and the amount of virus present was titered in MT-2 cells using luciferase enzyme activity as a marker by measuring luciferase enzyme activity. Luciferase was quantitated using the EnduRen Live Cell Substrate from Promega (Madison, Wis.). Antiviral activities of compounds toward the recombinant virus were quantified by measuring luciferase activity in MT-2 cells infected for 4-5 days with the recombinant virus in the presence of serial dilutions of the compound.
The 50% effective concentration (ECs) was calculated by using the exponential form of the median effect equation where (Fa)=1/[1+(ED50/drug conc.)^m] (Johnson Va., Byington RT. Infectivity Assay. In Techniques in HIV Research. ed. Aldovini A, Walker BD. 71-76. New York: Stockton Press. 1990).

[2] = Compound cytotoxicity, XTT-based colorimetric assay; assay type: cell-based; conditions: human, uninfected MT2 cells, Table 1a, day 4, XTT
Description: Compound cytotoxicity and the corresponding CC50 values were determined using the same protocol as described in the antiviral assay except that uninfected cells were used. Cytotoxicity was assessed on day 4 in uninfected MT2 cells by using a XTT (2,3-bis[2-Methoxy-4-nitro-5-sulfophenyl]-2H-tetrazolium-5-carboxyanilide inner salt)-based colorimetric assay (Sigma-Aldrich, St Louis, Mo.). Biological data for select compounds of the invention are contained in Table 1 and Table 1a

COc1ccc2c(=O)n(-c3ccc(Cl)c4c(NS(C)(=O)=O)nn(C)c34)c([C@H](Cc3cc(F)cc(F)c3)NC(=O)Cn3ccc(C4CC4)n3)nc2n1 (mixture of isomers) [Example 58.1, N-[(1S)-1-[3-(4-chloro-3-methanesulfonamido-1-methyl-1H-indazol-7-yl)-7-methoxy-4-oxo-3H,4H-pyrido[2,3-d]pyrimidin-2-yl]-2-(3,5-difluorophenyl)ethyl]-2-(3-cyclopropyl-1H-pyrazol-1-yl)acetamide]
EC50 ([1]; Table 1a): 2.26 nM | CC50 at 4 days [2]: > 1000 nM

CCOc1ccc2c(=O)n(-c3ccc(Cl)c4c(NS(C)(=O)=O)nn(C)c34)c(C(Cc3cc(F)cc(F)c3)NC(=O)Cn3nc(C(F)F)c4c3C(F)(F)[C@@H]3C[C@H]43)nc2n1 (mixture of isomers) [Example 60.1]
EC50 ([1]; Renilla, NL43, Table 1a): 0.397 nM | CC50 at 4 days [2]: > 1000 nM

CCOc1ccc2c(=O)n(-c3ccc(Cl)c4c(NS(C)(=O)=O)nn(C)c34)c([C@H](Cc3cc(F)cc(F)c3)NC(=O)Cn3nc(C(F)F)c4c3C(F)(F)[C@@H]3C[C@H]43)nc2n1 (mixture of isomers) [Example 60.2, N-[(1S)-1-[3-(4-chloro-3-methanesulfonamido-1-methyl-1H-indazol-7-yl)-7-ethoxy-4-oxo-3H,4H-pyrido[2,3-d]pyrimidin-2-yl]-2-(3,5-difluorophenyl)ethyl]-2-[(2S,4R)-9-(difluoromethyl)-5,5-difluoro-7,8-diazatricyclo[4.3.0.0^2,4]nona-1(6),8-dien-7-yl]acetamide]
EC50 ([1]; Renilla, NL43, Table 1a): 0.0174 nM | CC50 at 4 days [2]: > 1000 nM

Cc1ccc(C)c2c(=O)n(-c3ccc(Cl)c4c(NS(C)(=O)=O)nn(C)c34)c(C(Cc3cc(F)cc(F)c3)NC(=O)Cn3nc(C(F)F)c4c3C(F)(F)[C@@H]3C[C@H]43)nc12 (mixture of isomers) [Example 67]
EC50 ([1]; Renilla, NL43, Table 1a): 183 nM | CC50 at 4 days [2]: > 1000 nM

COc1c(F)cc2c(=O)n(-c3ccc(Cl)c4c(NS(C)(=O)=O)nn(C)c34)c([C@H](Cc3cc(F)cc(F)c3)NC(=O)Cn3nc(C(F)F)c4c3C(F)(F)[C@@H]3C[C@H]43)nc2c1F (mixture of isomers) [Example 114]
EC50 ([1]; Renilla, NL43, Table 1a): 0.071 nM | CC50 at 4 days [2]: > 1000 nM

Cn1nc(NS(C)(=O)=O)c2c(Cl)ccc(-n3c([C@H](Cc4cc(F)cc(F)c4)NC(=O)Cn4nc(C(F)F)c5c4C(F)(F)[C@@H]4C[C@H]54)nc4ccc(F)c(Cl)c4c3=O)c21 (mixture of isomers) [Example 159, N—((S)-1-(5-chloro-3-(4-chloro-1-methyl-3-(methylsulfonamido)-1H-indazol-7-yl)-6-fluoro-4-oxo-3,4-dihydroquinazolin-2-yl)-2-(3,5-difluorophenyl)ethyl)-2-((3bS,4aR)-3-(difluoromethyl)-5,5-difluoro-3b,4,4a,5-tetrahydro-1H-cyclopropa[3,4]cyclopenta[1,2-c]pyrazol-1-yl)acetamide]
EC50 ([1]; Renilla, NL43, Table 1a): 9.49 nM | CC50 at 4 days [2]: > 1000 nM

Cn1nc(NS(C)(=O)=O)c2c(Cl)ccc(-n3c([C@H](Cc4cc(F)cc(F)c4)NC(=O)Cn4nc(C(F)F)c5c4C(F)(F)[C@@H]4C[C@H]54)nc4cc(C#N)ccc4c3=O)c21 (mixture of isomers) [Example 166, N—((S)-1-(3-(4-chloro-1-methyl-3-(methylsulfonamido)-1H-indazol-7-yl)-7-cyano-4-oxo-3,4-dihydroquinazolin-2-yl)-2-(3,5-difluorophenyl)ethyl)-2-((3bS,4aR)-3-(difluoromethyl)-5,5-difluoro-3b,4,4a,5-tetrahydro-1H-cyclopropa[3,4]cyclopenta[1,2-c]pyrazol-1-yl)acetamide]
EC50 ([1]; Renilla, NL43, Table 1a): 26 nM | CC50 at 4 days [2]: > 1000 nM

Cn1nc(NS(C)(=O)=O)c2c(Cl)ccc(-n3c([C@H](Cc4cc(F)cc(F)c4)NC(=O)Cn4nc(C(F)F)c5c4C(F)(F)[C@@H]4C[C@H]54)nc4cc(Cl)ccc4c3=O)c21 (mixture of isomers) [Example 167, N—((S)-1-(7-chloro-3-(4-chloro-1-methyl-3-(methylsulfonamido)-1H-indazol-7-yl)-4-oxo-3,4-dihydroquinazolin-2-yl)-2-(3,5-difluorophenyl)ethyl)-2-((3bS,4aR)-3-(difluoromethyl)-5,5-difluoro-3b,4,4a,5-tetrahydro-1H-cyclopropa[3,4]cyclopenta[1,2-c]pyrazol-1-yl)acetamide]
EC50 ([1]; Table 1a): 80.5 nM | CC50 at 4 days [2]: > 1000 nM

COc1cccc2nc([C@H](Cc3cc(F)cc(F)c3)NC(=O)Cn3nc(C(F)F)c4c3C(F)(F)[C@@H]3C[C@H]43)n(-c3ccc(Cl)c4c(NS(C)(=O)=O)nn(C)c34)c(=O)c12 (mixture of isomers) [Example 169, N—((S)-1-(3-(4-chloro-1-methyl-3-(methylsulfonamido)-1H-indazol-7-yl)-5-methoxy-4-oxo-3,4-dihydroquinazolin-2-yl)-2-(3,5-difluorophenyl)ethyl)-2-((3bS,4aR)-3-(difluoromethyl)-5,5-difluoro-3b,4,4a,5-tetrahydro-1H-cyclopropa[3,4]cyclopenta[1,2-c]pyrazol-1-yl)acetamide]
EC50 ([1]; Table 1a): 119 nM | CC50 at 4 days [2]: > 1000 nM

Cn1nc(NS(C)(=O)=O)c2c(Cl)ccc(-n3c([C@H](Cc4cc(F)cc(F)c4)NC(=O)Cn4nc(C(F)F)c5c4C(F)(F)[C@@H]4C[C@H]54)nc4ccc(Cl)c(F)c4c3=O)c21 (mixture of isomers) [Example 175, N—((S)-1-(6-chloro-3-(4-chloro-1-methyl-3-(methylsulfonamido)-1H-indazol-7-yl)-5-fluoro-4-oxo-3,4-dihydroquinazolin-2-yl)-2-(3,5-difluorophenyl)ethyl)-2-((3bS,4aR)-3-(difluoromethyl)-5,5-difluoro-3b,4,4a,5-tetrahydro-1H-cyclopropa[3,4]cyclopenta[1,2-c]pyrazol-1-yl)acetamide]
EC50 ([1]; Renilla, NL43, Table 1a): 10.9 nM | CC50 at 4 days [2]: > 1000 nM

Cn1nc(NS(C)(=O)=O)c2c(Cl)ccc(-n3c([C@H](Cc4cc(F)cc(F)c4)NC(=O)Cn4nc(C(F)F)c5c4C(F)(F)[C@@H]4C[C@H]54)nc4cc(Cl)cc(Cl)c4c3=O)c21 (mixture of isomers) [Example 178, N—((S)-1-(5,7-dichloro-3-(4-chloro-1-methyl-3-(methylsulfonamido)-1H-indazol-7-yl)-4-oxo-3,4-dihydroquinazolin-2-yl)-2-(3,5-difluorophenyl)ethyl)-2-((3bS,4aR)-3-(difluoromethyl)-5,5-difluoro-3b,4,4a,5-tetrahydro-1H-cyclopropa[3,4]cyclopenta[1,2-c]pyrazol-1-yl)acetamide]
EC50 ([1]; Renilla, NL43, Table 1a): 18.1 nM | CC50 at 4 days [2]: > 1000 nM

COc1cc(F)c2c(=O)n(-c3ccc(Cl)c4c(NS(C)(=O)=O)nn(C)c34)c([C@H](Cc3cc(F)cc(F)c3)NC(=O)Cn3nc(C(F)F)c4c3C(F)(F)[C@@H]3C[C@H]43)nc2c1 (mixture of isomers) [Example 185, N—((S)-1-(3-(4-chloro-1-methyl-3-(methylsulfonamido)-1H-indazol-7-yl)-5-fluoro-7-methoxy-4-oxo-3,4-dihydroquinazolin-2-yl)-2-(3,5-difluorophenyl)ethyl)-2-((3bS,4aR)-3-(difluoromethyl)-5,5-difluoro-3b,4,4a,5-tetrahydro-1H-cyclopropa[3,4]cyclopenta[1,2-c]pyrazol-1-yl)acetamide]
EC50 ([1]; Renilla, NL43, Table 1a): 87.3 nM | CC50 at 4 days [2]: > 1000 nM

Cn1nc(NS(C)(=O)=O)c2c(Cl)ccc(-c3cc4sc(N)nc4nc3C(Cc3cc(F)cc(F)c3)NC(=O)Cn3nc(C(F)F)c4c3C(F)(F)[C@@H]3C[C@H]43)c21 (mixture of isomers) [Example 194, N-(1-(2-amino-6-(4-chloro-1-methyl-3-(methylsulfonamido)-1H-indazol-7-yl)thiazolo[4,5-b]pyridin-5-yl)-2-(3,5-difluorophenyl)ethyl)-2-((3bS,4aR)-3-(difluoromethyl)-5,5-difluoro-3b,4,4a,5-tetrahydro-1H-cyclopropa[3,4]cyclopenta[1,2-c]pyrazol-1-yl)acetamide]
EC50 ([1]; Renilla, NL43, Table 1a): 1.9 nM | CC50 at 4 days [2]: > 10000 nM

Cn1nc(NS(C)(=O)=O)c2c(Cl)ccc(-n3c([C@H](Cc4cc(F)cc(F)c4)NC(=O)Cn4nc(C(F)F)c5c4C(F)(F)[C@@H]4C[C@H]54)nc4cc(C(C)(F)F)ccc4c3=O)c21 (mixture of isomers) [Example 195, N—((S)-1-(3-(4-chloro-1-methyl-3-(methylsulfonamido)-1H-indazol-7-yl)-7-(1,1-difluoroethyl)-4-oxo-3,4-dihydroquinazolin-2-yl)-2-(3,5-difluorophenyl)ethyl)-2-((3bS,4aR)-3-(difluoromethyl)-5,5-difluoro-3b,4,4a,5-tetrahydro-1H-cyclopropa[3,4]cyclopenta[1,2-c]pyrazol-1-yl)acetamide]
EC50 ([1]; Renilla, NL43, Table 1a): 74.4 nM | CC50 at 4 days [2]: > 1000 nM
